Measured values reported in ChEMBL document CHEMBL1144944, “Discovery of an orally efficacious inhibitor of coagulation factor Xa which incorporates a neutral P1 ligand” (J Med Chem, 2003).

What was measured:
[1] = molecular target: Coagulation factor X (Homo sapiens, UniProt P00742); assay: In vitro binding affinity for human Coagulation factor X
[2] = molecular target: Serine protease 1 (Homo sapiens, UniProt P07477); assay: Binding affinity towards trypsin
[3] = molecular target: Prothrombin (Homo sapiens, UniProt P00734); assay: Binding affinity towards thrombin
[4] = system: Caco-2; assay: Compound was tested in vitro for its percent absorption towards CaCo-2 cell monolayer; type: functional, cell-based; conditions: Homo sapiens
[5] = Ionization constant was determined for the compound; type: physicochemical
[6] = organism: Homo sapiens; assay: Concentration of inhibitor required to double the activated partial thromboplastin time in human was determined; type: functional, organism-based
[7] = Percent oral bioavailability after peroral administration (5 mpk) was determined in dog; type: ADME, organism-based, Canis lupus familiaris; conditions: in vivo, 5 mg/kg
[8] = organism: Canis familiaris; assay: Concentration of inhibitor required to double the activated partial thromboplastin time in dog was determined; type: functional, organism-based; conditions: Canis lupus familiaris
[9] = Maximum plasma concentration after peroral administration (5 mpk) was determined in dog; type: ADME, organism-based, Canis lupus familiaris; design: route oral; conditions: po, 5 mg/kg
[10] = Half life period after peroral administration (5 mpk) was determined in dog; type: ADME, organism-based, Canis lupus familiaris; conditions: in vivo, po, 5 mg/kg
[11] = Oral bioavailability in dog (dose 10 mg/kg); type: ADME, organism-based, Canis lupus familiaris; conditions: in vivo
[12] = Maximum plasma concentration after peroral administration (10 mpk) was determined in dog; type: ADME, organism-based, Canis lupus familiaris; design: route oral; conditions: po, 10 mg/kg
[13] = Half life period after peroral administration (10 mpk) was determined in dog; type: ADME, organism-based, Canis lupus familiaris; conditions: in vivo, po, 10 mg/kg
[14] = Ionization constant is the negative logarithm of the equilibrium coefficient of the neutral and charged forms of the compound; type: physicochemical

Chain of Coagulation factor X (P00742 41-179 limits assumed): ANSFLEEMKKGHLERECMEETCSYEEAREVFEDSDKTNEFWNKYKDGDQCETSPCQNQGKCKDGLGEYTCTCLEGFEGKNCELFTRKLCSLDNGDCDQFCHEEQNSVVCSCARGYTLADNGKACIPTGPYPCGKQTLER
Chain of Coagulation factor X (P00742 235-488 limits assumed): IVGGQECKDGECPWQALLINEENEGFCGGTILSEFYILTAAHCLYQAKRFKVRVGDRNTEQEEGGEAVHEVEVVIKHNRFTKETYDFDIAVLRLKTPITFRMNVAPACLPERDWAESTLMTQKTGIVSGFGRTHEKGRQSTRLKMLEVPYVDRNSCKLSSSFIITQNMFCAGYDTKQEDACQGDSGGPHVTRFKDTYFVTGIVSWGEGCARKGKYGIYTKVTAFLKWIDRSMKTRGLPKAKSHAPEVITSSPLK
Chain of Serine protease 1 (P07477 whole entry): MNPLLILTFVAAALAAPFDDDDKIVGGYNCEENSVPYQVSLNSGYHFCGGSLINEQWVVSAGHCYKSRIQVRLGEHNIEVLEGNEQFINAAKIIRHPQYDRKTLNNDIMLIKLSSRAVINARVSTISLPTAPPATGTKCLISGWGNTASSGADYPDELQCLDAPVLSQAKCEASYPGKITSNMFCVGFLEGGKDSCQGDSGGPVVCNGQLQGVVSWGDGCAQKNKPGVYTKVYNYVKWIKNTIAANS

| Ki [1] | Ki [2] | Ki [3] | SMILES | other results |
| --- | --- | --- | --- | --- |
| 38 nM | > 2900 nM | > 3.9 µM | O=C1CN(S(=O)(=O)c2cc3ccc(Cl)cc3s2)CCN1Cc1cc2c[n+]([O-])ccc2[nH]1 |  |
| > 1200 nM |  |  | O=C1CN(S(=O)(=O)c2cc3cccnc3s2)CCN1Cc1cc2c[nH]ccc-2n1 |  |
| 23 nM |  |  | O=C1CN(S(=O)(=O)c2ccc(-c3ccc(Cl)s3)s2)CCN1Cc1cc2c[nH]ccc-2n1 |  |
| > 1200 nM |  |  | O=C1CN(S(=O)(=O)c2sc3ccccc3c2Cl)CCN1Cc1cc2c[nH]ccc-2n1 |  |
| 3 nM | > 2900 nM | > 3.9 µM | Cn1c(CN2CCN(S(=O)(=O)c3cc4ccc(Cl)cc4s3)CC2=O)cc2cnccc21 | Absorption [4]: 3% |
| > 1200 nM | > 2900 nM | > 3.9 µM | O=C1CN(S(=O)(=O)c2cc3ccc(Cl)cc3s2)CCN1Cc1cc2c(O)[nH]ccc-2n1 |  |
| 959 nM |  |  | O=C1CN(S(=O)(=O)c2cc3ccccc3s2)CCN1Cc1cc2c[nH]ccc-2n1 |  |
| 45 nM | > 2900 nM | 3.9 µM | O=C1CN(S(=O)(=O)c2cc3ccc(Cl)cc3s2)CCN1Cc1cc2cc[nH]cc-2n1 | pKa [5]: 8 |
| > 1200 nM |  |  | COc1cc(/C=C/S(=O)(=O)N2CCN(Cc3cc4c[nH]ccc-4n3)C(=O)C2)sc1Cl |  |
| 4 nM |  |  | O=C1CN(S(=O)(=O)c2cc3ccc(Cl)nc3s2)CCN1Cc1cc2c[nH]ccc-2n1 |  |
| 128 nM |  |  | O=C1CN(S(=O)(=O)CCc2ccc(Cl)s2)CCN1Cc1cc2c[nH]ccc-2n1 |  |
| 1220 nM | > 2900 nM | > 3.9 µM | O=C1CN(S(=O)(=O)c2cc3ccc(Cl)cc3s2)CCN1Cc1cc2cnccc2o1 | pKa [5]: 5.8 |
| 8 nM | > 2900 nM | > 3.9 µM | NC(=O)Cn1c(CN2CCN(S(=O)(=O)c3cc4ccc(Cl)cc4s3)CC2=O)cc2cnccc21 | Absorption [4]: 7% |
|  |  |  | O=C1CN(S(=O)(=O)/C=C/c2ccc(Cl)s2)CCN1Cc1cc2c[nH]ccc-2n1 | Concentration [6]: 0.59 µM; bioavailability [7]: 97%; Concentration [8]: 2.2 µM; Cmax [9]: 1640 nM; half-life [10]: 52 min |
|  |  |  | O=C1CN(S(=O)(=O)c2cc3ccc(Cl)cc3s2)CCN1Cc1cc2cnccc2n1CCO | bioavailability [11]: 11%; Cmax [12]: 783 nM; half-life [13]: 139 min |
| 18 nM | > 2900 nM | > 3.9 µM | COC(=O)Cn1c(CN2CCN(S(=O)(=O)c3cc4ccc(Cl)cc4s3)CC2=O)cc2cnccc21 | Absorption [4]: 47.6% |
| 1200 nM |  |  | O=C1CN(S(=O)(=O)c2cc3ncc(Cl)cc3s2)CCN1Cc1cc2c[nH]ccc-2n1 |  |
|  | > 2900 nM | 2.9 µM | O=C1CN(S(=O)(=O)c2cc3ccc(Cl)cc3s2)CCN1Cc1cc2c[nH]ccc-2n1 | Concentration [6]: 2 µM; bioavailability [11]: 99%; Absorption [4]: 6%; Cmax [12]: 658 nM; pKa [14]: 8.3; Concentration [8]: 5 µM; half-life [13]: 36 min |
| > 1200 nM |  |  | O=C1CN(S(=O)(=O)c2cc3ncccc3s2)CCN1Cc1cc2c[nH]ccc-2n1 |  |
| 3 nM |  |  | O=C1CN(S(=O)(=O)c2cc3ccc(Br)cc3s2)CCN1Cc1cc2c[nH]ccc-2n1 |  |
| > 1200 nM | > 2900 nM | > 3.9 µM | O=C1CN(S(=O)(=O)c2cc3ccc(Cl)cc3s2)CCN1Cc1nc2cc[nH]cc-2n1 | pKa [5]: 6.1 |
|  | > 2900 nM | > 3.9 µM | Nc1[nH]ccc2nc(CN3CCN(S(=O)(=O)c4cc5ccc(Cl)cc5s4)CC3=O)cc1-2 | pKa [5]: 9.3 |
| 48 nM |  |  | O=C1CN(S(=O)(=O)/C=C/c2ccc(Cl)cc2)CCN1Cc1cc2c[nH]ccc-2n1 |  |
| > 1200 nM |  |  | O=C1CN(S(=O)(=O)c2ccc(-c3ccc(Cl)cc3)cc2)CCN1Cc1cc2c[nH]ccc-2n1 |  |
| > 1200 nM | > 2900 nM | > 3.9 µM | O=C1CN(S(=O)(=O)c2cc3ccc(Cl)cc3s2)CCN1Cc1cc2[nH]cccc-2n1 | pKa [5]: 6.9 |
| 154 nM | > 2900 nM | > 3.9 µM | O=C(O)Cn1c(CN2CCN(S(=O)(=O)c3cc4ccc(Cl)cc4s3)CC2=O)cc2cnccc21 |  |
